Assay results reported in US6399568B1, “Cyclic tetrapeptide derivatives and medicinal use thereof” (Japan Energy Corporation, priority 1997, dated 2002).
Where two headings read alike, the source gives them in different places. Non-standard residues stand in square brackets, D forms with d. Residues, ends and D or L forms follow the SMILES beside them. ξ: configuration not given here. *: point of attachment. Asu = N[C@@H](CCCCCC(=O)O)C(=O)O; ξPip = O=C(O)C1CCCCN1; Aib = CC(C)(N)C(=O)O; NHOH = ON*

Legend:
B16/BL6 cells [1] = experiment: Inhibitory effect on cell proliferation (MTS, 48 hours); type: cell-based, mouse; conditions: 48 hours after addition; read-out: 50% inhibiting concentration
Text: (§1) In order to verify the action of the cyclic tetrapeptide derivative according to the present invention in inhibiting cell proliferation in cancerized cells, the action on the proliferation of the aforementioned B16/BL6 cells was investigated. The evaluation of cell proliferation rates was done utilizing a commercially available measuring kit, specifically, from Promega under the trade name CellTiter 96 Aqueous Non-Radioactive Proliferation Assay Kit. In the measuring kit, the amount of products through reduction of a reagent tetrazolium compound (3-(4,5-dimethylthiazol-2-yl)-5-(3-carboxymethoxyphenyl)-2-(4-sulfophenyl)-2H-tetrazolium, inner salt; MTS) by viable animal cells is determined by detecting spectrophotometrically the color generated from the products. Since the amount of products is proportional to the amount of viable cells, this kit is utilized to evaluate the amount of viable cells.
(§2) According to the procedure of Test Example 1, B16/BL6 cells are inoculated in a 96 well microplate and cultured for 24 hours. Then, 10 μl of a solution of the source solution of a compound to be tested which has been diluted to a predetermined amount per well is added. Thereafter, culture is continued for additional 48 hours and 20 μl of a reagent solution in the aforementioned CellTiter 96 Aqueous Non-Radioactive Proliferation Assay Kit is then added. After incubation is continued at 37° C. for 1 hour, the amount of color generation is measured as an absorbance at 490 n musing a microplate reader.
(§3) The amount of cell proliferation of a group to which a compound to be tested is added is expressed in a relative value as compared to the standard cell proliferation (100%) in a control group to which no compound to be tested is added. For each compound tested, the amounts of cell proliferation were measured at different concentrations of addition and the dependence of the quantitative cell proliferation on the concentration of addition was investigated. From the results, a concentration of addition at which the amount of cell proliferation was inhibited by 50% relative to the amount of cell proliferation in the control group without addition was determined.

[2] = test system: mouse malignant melanoma B16 cell line; experiment: Cell proliferation inhibition (72 hours); type: cell-based; conditions: read-out: 50% proliferation inhibiting concentration B16 (nM) mean
Text: as §1, §2, §3
(§4) The test method was in accordance with the above-mentioned procedure, except that the period of incubation after the addition of a compound was 72 hours.
(§5) As illustrative examples, results are shown for an evaluation using mouse malignant melanoma B16/BL6 and B16 cell lines; leukemia L1210 cell line, colon cancer Colon26 cell line, and liver cancer MH134 cell line as cancer cells. For the cell proliferation inhibiting action of each compound tested for these cancer cells, 50% proliferation inhibiting concentrations are shown in Table 4.

B16/BL6 cells [3] = experiment: MHC class-I molecule expression promoting activity; type: cell-based, mouse; conditions: for MHC class-I molecule expression promoting action: FIGS. 3 and 4, dependence on concentration of addition; for Twice Promoting Concentration Cx2: concentration at which MHC class-I expression is twice that without addition; for Twice Promoting Concentration Cx2 / conc. for 2-fold expression (nM) mean: 72 hours; for conc. for 2-fold expression (nM) mean: mean of a plurality of assays
leukemia L1210 cell line = experiment: Cell proliferation inhibition (72 hours); type: cell-based, mouse; conditions: read-out: 50% proliferation inhibiting concentration L1210 (nM) mean
Text: as §1, §2, §3, §4, §5

[4] = test system: colon cancer Colon26 cell line; experiment: Cell proliferation inhibition (72 hours); type: cell-based, mouse; conditions: read-out: 50% proliferation inhibiting concentration Colon 26 (nM) mean
Text: as §1, §2, §3, §4, §5

[5] = test system: liver cancer MH134 cell line; experiment: Cell proliferation inhibition (72 hours); type: cell-based, mouse; conditions: read-out: 50% proliferation inhibiting concentration MH134 (nM) mean
Text: as §1, §2, §3, §4, §5

[6] = test system: mouse malignant melanoma B16/BL6 cell line; type: cell-based; conditions: 72 hours; read-out: 50% proliferation inhibiting concentration B16/BL6 (nM) mean
Text: as §1
as §2, with “Then, 10 μl of a solution of the source solution of a compound to be tested which has been diluted to a predetermined amount per well is added.” left out
as §3, with “investigated.” for “investigated. From the results, a concentration of addition at which the amount of cell proliferation was inhibited by 50% relative to the amount of cell proliferation in the control group without addition was determined.”
as §4

histone deacetylase = experiment: Histone deacetylase enzyme inhibiting activity, synthetic peptide substrate; type: biochemical, mouse; conditions: enzyme from B16/BL6 cells; [3H]acetylated histone H4 peptide; 37° C. 3 hours
Experimental: The preparation of histone deacetylase was performed essentially according to the method of Yoshida et al. (J. Biol. Chem., 265,17174-17179, 1990). The enzyme to be used was partially purified from B16/BL6 cells. The cells were suspended in HDA buffer (15 mM potassium phosphate, 5% glycerol, 0.2 mM EDTA, […], pH 7.5), homogenized and centrifuged (2500×g, 10 min) to collect the nuclei, which in turn were homogenized in the same buffer containing 1 M (NH4)2SO4. After ultrasonic disruption and centrifugation, the concentration of (NH4)2SO4 in the collected supernatant was increased to 3.5 M to precipitate histone deacetylase. This precipitate was redissolved in HDA buffer, subjected to gel filtration to replace the solvent with HDA buffer, and used as a crude histone deacetylase enzyme solution.
As a substrate, a synthetic substrate peptide, [^3H]acetylated histone H4 peptide was used. This [^3H]acetylated histone H4 peptide was obtained by synthesizing the N-terminal peptide of histone H4; […] (the C-terminal being cysteine) and radio-acetylating with ^3H -acetic anhydride.
An assay was performed by incubating the synthetic substrate solution and the enzyme solution at 37° C. for 3 hours in the presence of a compound to be tested (reaction volume, 100 μl). The reaction was stopped by adding 25 μl of 1 M HCl and 0.2 M acetic acid and [^3H]acetate excised by the enzyme reaction was extracted with ethyl acetate for radioactivity measurement. As a control group, the same procedure was repeated without addition of any test compound to the reaction system. The inhibiting activity was expressed by a concentration at which the histone deacetylase enzyme activity in the control group was inhibited by 50% (50% inhibiting concentration).

[7] = molecular target: Mouse histone deacetylase; type: biochemical
Experimental: In an enzyme system using a radio-labelled acetylated histone as a substrate, histone deacetylase enzyme inhibiting activity was evaluated. The basic conditions were in accordance with the method of Yoshida et al. (J. Biol. Chem., 265, 17174-17179, 1990).
Mouse histone deacetylase to be used was partially purified from FM3A cells. Cells were suspended in HDA buffer (15 mM potassium phosphate, 5% glycerol, 0.2 mM EDTA, pH 7.5), homogenized and centrifuged (35000×g, 10 min) to collect the nuclei which in turn were homogenized in the same buffer containing 1 M (NH4)2SO4. After ultrasonic disruption and centrifugation, the concentration of (NH4)2SO4 in the supernatant was increased to 3.5 M to precipitate deacetylase enzyme proteins. This precipitate was redissolved in HDA buffer, dialyzed against HDA buffer, applied to DEAE-cellulose column and eluted in NaCl gradient. Active fractions were used as a histone deacetylase enzyme solution.
As a substrate, [^3H]acetyl histone was used. In a culture solution of FM3A cells in the presence of 5 mM sodium n-butyrate, [^3H]acetate was added, followed by incubation for 30 minutes to radio-label the histone. The histone was prepared in a conventional manner and used as a substrate solution.
An assay was performed by adding a compound to be tested at a given concentration while using a no-addition control group, and by incubating the substrate solution and the enzyme solution at 37° C. for 10 minutes (reaction volume, 100 μl). The enzyme reaction was stopped by adding 10 μl of concentrated hydrochloric acid and the excised [^3H]acetate was extracted with ethyl acetate for radioactivity measurement. The inhibiting activity was expressed by a concentration at which the enzyme activity in the control group was inhibited by 50% (50% inhibiting concentration).

B16/BL6 cells [8] = experiment: Inhibitory effect on histone deacetylation in cells (AUT gel electrophoresis); type: cell-based, mouse; conditions: Example 1 added at 10 μM, trichostatin A at 1 μM; 6 hours; histone H4 bands
Experimental: In a culture flask of 75 ml in capacity, 1.5×10^5 B16/BL6 cells were inoculated and preliminarily cultured for 4 days. Then, a given amount of a compound to be tested was added and subsequently cultured for 6 hours. Thereafter, cells were striped using 0.25% trypsin enzyme solution, washed once with PBS and stored temporarily at −80° C.
From this cell sample, histone was separated from chromatin and collected together with other proteins in a conventional manner. The resulting protein sample was subjected to AUTgel electrophoresis in an amount of 1 μg/lane. Said gel was stained with silver to detect bands separated by the migration.
The result on a control group in which no compound to be tested was added is also shown.

[9] = enzyme from FM3A cells, [3H]acetyl histone, 37° C. 10 minutes

CC(C)C[C@@H]1NC(=O)[C@@H](Cc2ccccc2)NC(=O)[C@H](CCCCCC(=O)NO)NC(=O)C2CCCCN2C1=O (stereo partly drawn) [HDA-12, cyclo(-Asu(NHOH)-D-Phe-Leu-Pip-)] (cyclo([Asu](NHOH)[dF]L[ξPip]))
IC50 (B16/BL6 cells [1]): 0.0123 µM
IC50 [2]: 262 nM
MHC class-I molecule expression promoting action (B16/BL6 cells [3]): exhibited MHC class-I molecule expression promoting action
Twice Promoting Concentration Cx2 (B16/BL6 cells [3]): 3.86 nM
conc. for 2-fold expression (nM) mean (B16/BL6 cells [3]): 2.75 nM
IC50 (leukemia L1210 cell line): 28.3 nM
IC50 [4]: 149 nM
IC50 [5]: 112 nM
IC50 [6]: 9.44 nM

CC1(C)NC(=O)[C@H](CCCCCC(=O)NO)NC(=O)[C@H]2CCCN2C(=O)[C@H](Cc2ccccc2)NC1=O [HDA-15, cyclo(-Asu(NHOH)-Aib-Phe-D-Pro-)] (cyclo([Aib]F[dP][Asu](NHOH)))
IC50 (B16/BL6 cells [1]): 0.0925 µM
IC50 [2]: 1230 nM
MHC class-I molecule expression promoting action (B16/BL6 cells [3]): exhibited MHC class-I molecule expression promoting action
Twice Promoting Concentration Cx2 (B16/BL6 cells [3]): 36.2 nM
conc. for 2-fold expression (nM) mean (B16/BL6 cells [3]): 33.2 nM
IC50 (leukemia L1210 cell line): 193 nM
IC50 [4]: 908 nM
IC50 [5]: 946 nM
IC50 [6]: 110 nM

O=C(CCCCCC[C@@H]1NC(=O)[C@H]2CCCN2C(=O)[C@H](Cc2ccccc2)NC(=O)[C@H](Cc2ccccc2)NC1=O)NO [HDA-17, cyclo(-Aaz(NHOH)-Phe-Phe-D-Pro-)]
IC50 (histone deacetylase): 0.0247 µM
IC50 [2]: 23500 nM
MHC class-I molecule expression promoting action (B16/BL6 cells [3]): exhibited MHC class-I molecule expression promoting action
Twice Promoting Concentration Cx2 (B16/BL6 cells [3]): 1120 nM
conc. for 2-fold expression (nM) mean (B16/BL6 cells [3]): 990 nM
IC50 (leukemia L1210 cell line): 7380 nM
IC50 [4]: 29300 nM
IC50 [5]: 19900 nM
IC50 [6]: 1260 nM
IC50 [7, 9]: 0.0198 µM

O=C(CCCC[C@@H]1NC(=O)[C@H]2CCCN2C(=O)[C@H](Cc2ccccc2)NC(=O)[C@H](Cc2ccccc2)NC1=O)NO [HDA-18, cyclo(-Api(NHOH)-Phe-Phe-D-Pro-)]
IC50 (histone deacetylase): 0.15 µM
IC50 [2]: > 100000 nM
MHC class-I molecule expression promoting action (B16/BL6 cells [3]): exhibited MHC class-I molecule expression promoting action
Twice Promoting Concentration Cx2 (B16/BL6 cells [3]): 11600 nM
conc. for 2-fold expression (nM) mean (B16/BL6 cells [3]): 10900 nM
IC50 (leukemia L1210 cell line): > 100000 nM
IC50 [4]: > 100000 nM
IC50 [5]: > 100000 nM
IC50 [6]: 59300 nM
IC50 [7, 9]: 0.39 µM

O=C(CCCCC[C@@H]1NC(=O)[C@H]2CCCN2C(=O)[C@H](Cc2ccccc2)NC(=O)[C@@H](Cc2ccccc2)NC1=O)NO [HDA-27, cyclo(-L-Asu(NHOH)-D-Phe-L-Phe-D-Pro-)] (cyclo([Asu](NHOH)[dF]F[dP]))
IC50 (histone deacetylase): 0.00344 µM
IC50 [2]: 309 nM
conc. for 2-fold expression (nM) mean (B16/BL6 cells [3]): 3.01 nM
IC50 (leukemia L1210 cell line): 53 nM
IC50 [4]: 277 nM
IC50 [5]: 236 nM
IC50 [6]: 18 nM
IC50 [7]: 0.00145 µM

CC(C)C[C@@H]1NC(=O)[C@@H](Cc2ccccc2)NC(=O)[C@H](CCCCCC(=O)NO)NC(=O)[C@H]2CCCN2C1=O [HDA-29, cyclo(-L-Asu(NHOH)-D-Phe-L-Leu-D-Pro-)] (cyclo([Asu](NHOH)[dF]L[dP]))
IC50 [2]: 293 nM
conc. for 2-fold expression (nM) mean (B16/BL6 cells [3]): 5.41 nM
IC50 (leukemia L1210 cell line): 43.8 nM
IC50 [4]: 198 nM
IC50 [5]: 176 nM
IC50 [6]: 15.8 nM
IC50 [7, 9]: 0.00159 µM

CC(/C=C/C(=O)NO)=C\[C@@H](C)C(=O)c1ccc(N(C)C)cc1 [Trichostatin A, trichostatin A, reference compound]
IC50 (B16/BL6 cells [1]): 0.0143 µM
IC50 (histone deacetylase): 0.00255 µM
IC50 [2]: 621 nM
MHC class-I molecule expression promoting action (B16/BL6 cells [3]): MHC class-I molecule expression promoting action was confirmed
MHC class-I molecule expression promoting activity (B16/BL6 cells [3]; allowed to act on animal cells (summary statement)): promotes the expression of MHC class-I molecule
Twice Promoting Concentration Cx2 (B16/BL6 cells [3]): 3.35 nM
inhibitory effect on histone deacetylation (B16/BL6 cells [8]): a total of 5 discrete bands are clearly seen in this region
IC50 (leukemia L1210 cell line): 12.4 nM
IC50 [4]: 139 nM
IC50 [5]: 41.7 nM
IC50 [6]: 19.1 nM
